Data from patent US20230129364A1, “PYRROLIDINE DERIVATIVE, AND PHARMACEUTICAL COMPOSITION FOR PREVENTING OR TREATING BETA-AMYLOID OR TAU PROTEIN-ASSOCIATED DISEASES CONTAINING SAME” (YONSEI UNIVERSITY, UNIVERSITY - INDUSTRY FOUNDATION (UIF), priority 2019, published 2023).

How the values were obtained:
[1] = biological target: T1, aggregated tau protein (wild-type K18) (Homo sapiens, UniProt P10636); experiment: Tau protein aggregate degradation test (thioflavin T assay); assay type: biochemical; settings: pre-aggregated tau, further 5 days at 37° C., ThT fluorescence vs control = 100%
T1 construct: Tau protein (wild-type K18)
T1 sequence (P10636 561-685 limits assumed): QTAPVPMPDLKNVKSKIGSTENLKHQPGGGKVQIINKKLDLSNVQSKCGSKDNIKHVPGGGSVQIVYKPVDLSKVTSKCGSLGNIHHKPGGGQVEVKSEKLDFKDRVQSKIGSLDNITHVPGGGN
Procedure: Tau protein (wild-type K18) was dissolved in phosphate-buffered saline (PBS, pH 7.4) at a concentration of 1 mg/mL to prepare a tau protein solution. 0.1 mg/mL of heparin and 100 μM dithiothreitol (DTT) were added to 1 mg/mL of the tau protein solution, followed by incubation at 37° C. for 5 days to induce tau protein aggregation. The aggregated tau protein was mixed with each test compound in an amount of 50 or 500 μM such that the final concentration reached 0.5 mg/mL, followed by further incubation at 37° C. for 5 days to induce reaction.
The degradation effect of each compound on the tau aggregates was measured by thioflavin T (ThT) assay (see Example 2). More specifically, 25 μL of the reaction solution was charged in each well of a 96-well plate for fluorescence analysis and 75 μL of the prepared thioflavin-T solution was charged in each well. The reaction was allowed to proceed at room temperature in a dark laboratory for 5 minutes and then fluorescence values were measured at an excitation wavelength of 450 nm and an emission wavelength of 485 nm using a multi-mode microplate reader.
The ratio of the fluorescence value measured in the group obtained by treating with each test compound to 100% of the fluorescence value of the group (control group) obtained by treating only with tau proteins and inducing aggregation for 5 days is set forth in Table 6 below: […]

[2] = biological target: T2, Tau protein (wild-type K18) (Homo sapiens, UniProt P10636); experiment: Tau protein aggregation inhibition test (thioflavin T assay); assay type: biochemical; settings: heparin/DTT-induced aggregation, 37° C. 5 days, ThT fluorescence vs tau-only control = 100%
T2 construct: Tau protein (wild-type K18)
T2 sequence (P10636 561-685 limits assumed): as above
Procedure: Tau protein (wild-type K18) was dissolved in phosphate-buffered saline (PBS, pH 7.4) at a concentration of 1 mg/mL to prepare a tau protein solution. In order to induce aggregation of tau proteins, 0.1 mg/mL of heparin and 100 μM dithiothreitol (DTT) were added to 1 mg/mL of the tau protein solution, followed by incubation at 37° C. for 5 days. At this time, the result was mixed with each test compound (50, 500 μM) such that the final concentration reached 0.5 mg/mL, followed by further incubation.
The inhibitory effect of each compound against tau aggregation was measured based on the intensity of fluorescence by thioflavin T (ThT) assay (see Example 2). More specifically, 25 μL of the reaction solution was charged in each well of a 96-well plate for fluorescence analysis, and 75 μL of the prepared thioflavin-T solution was then charged in each well. The reaction was allowed to proceed at room temperature in a dark laboratory for 5 minutes, and then fluorescence values were measured at an excitation wavelength of 450 nm and an emission wavelength of 485 nm using a multi-mode microplate reader.
The ratio of the fluorescence value measured in the group obtained by treating with each test compound to 100% of the fluorescence value of the group (control group) obtained by treating only with tau proteins and inducing aggregation for 5 days is set forth in Table 5 below: […]

Row | SMILES | ThT fluorescence remaining (% of control) ([1]; 50 uM test compound) | ThT fluorescence remaining (% of control) ([1]; 500 uM test compound) | Tau aggregation remaining (ThT fluorescence, % of tau-only control) ([2]; 50 uM test compound) | Tau aggregation remaining (ThT fluorescence, % of tau-only control) ([2]; 500 uM test compound)
1 | O=C1NC(=O)/C(=C/c2c[nH]c3ccccc23)S1 [DN204285, (Z)-5-((1H-indol-3-yl)methylene)thiazolidine-2,4-dione] | 64.04 % of control | 78.38 % of control | 53.14 % of control | 42.56 % of control
2 | O=C1NC(=O)/C(=C/c2ccoc2)S1 [DN204287, (Z)-5-(furan-3-ylmethylene)thiazolidine-2,4-dione] | 61.17 % of control | 71.42 % of control | 69.16 % of control | 59.86 % of control
3 | O=C1NC(=O)/C(=C/c2ccsc2)S1 [DN204288, (Z)-5-(thiophen-3-ylmethylene) thiazolidine-2,4-dione] |  |  | 74.09 % of control | 80.79 % of control
4 | O=C1NC(=O)/C(=C/c2c[nH]c3cnccc23)S1 [DN204290, (Z)-5-((1H-pyrrolo[2,3-c]pyridin-3-yl)methylene)thiazolidine-2,4-dione] | 54.41 % of control | 40.38 % of control | 63.13 % of control | 42.61 % of control
5 | O=C1NC(=O)C(Cc2csc3ccccc23)S1 (centres unmarked) [DN204291, 5-(benzo[b]thiophen-3-ylmethyl)thiazolidine-2,4-dione] |  |  | 65.99 % of control | 
6 | O=C1NC(=O)C(Cc2ccoc2)S1 (centres unmarked) [DN204292, 5-(furan-3-ylmethyl)thiazolidine-2,4-dione] | 82.23 % of control | 77.46 % of control | 63.18 % of control | 60.16 % of control
7 | O=C1NC(=O)C(Cc2ccsc2)S1 (centres unmarked) [DN204293, 5-(thiophen-3-ylmethyl)thiazolidine-2,4-dione] |  | 95.86 % of control | 55.97 % of control | 58.22 % of control
8 | O=C1NC(=O)C(Cc2c[nH]c3ccccc23)S1 (centres unmarked) [DN204295, 5-((1H-indol-3-yl)methyl)thiazolidine-2,4-dione] | 89.98 % of control |  | 74.98 % of control | 59.6 % of control
9 | O=C1NC(=S)SC1Cc1csc2ccccc12 (centres unmarked) [DN204300, 5-(benzo[b]thiophen-3-ylmethyl)-2-thioxothiazolidin-4-one] |  |  | 92.633 % of control | 
10 | O=C1NC(=S)SC1Cc1c[nH]c2ccccc12 (centres unmarked) [DN204301, 5-((1H-indol-3-yl)methyl)-2-thioxothiazolidin-4-one] | 80.31 % of control | 45.47 % of control | 90.337 % of control | 39.019 % of control
11 | O=C1NC(=S)SC1Cc1cnc2ccccc2c1 (centres unmarked) [DN204302, 5-(quinolin-3-ylmethyl)-2-thioxothiazolidin-4-one] |  |  | 67.16 % of control | 47.38 % of control
12 | O=C1NC(=S)SC1Cc1ccoc1 (centres unmarked) [DN204305, 5-(furon-3-ylmethyl)-2-thioxothiazolidin-4-one] | 61.22 % of control | 56.43 % of control | 83.45 % of control | 56.13 % of control
13 | O=C1NC(=S)SC1Cc1ccsc1 (centres unmarked) [DN204306, 5-(thiophen-3-ylmethyl)-2-thioxothiazolidin-4-one] | 66.03 % of control | 73.34 % of control | 66.31 % of control | 52.16 % of control
14 | O=C1NC(=O)C(Cc2cc[nH]c2)S1 (centres unmarked) [DN204307, 5-((1H-pyrrol-3-yl)methyl)thiazolidine-2,4-dione] |  |  |  | 57.26 % of control
15 | CN1C(=O)N/C(=C\c2cccc3ccoc23)C1=O [DN204670, (Z)-5-(benzofuran-7-ylmethylene)-3-methylimidazolidine-2,4-dione] |  |  | 87.73 % of control | 

Continued, values first:

Row | ThT fluorescence remaining (% of control) ([1]; 50 uM test compound) | ThT fluorescence remaining (% of control) ([1]; 500 uM test compound) | Tau aggregation remaining (ThT fluorescence, % of tau-only control) ([2]; 50 uM test compound) | Tau aggregation remaining (ThT fluorescence, % of tau-only control) ([2]; 500 uM test compound) | SMILES
16 |  |  | 88.61 % of control | 77.02 % of control | CN1C(=O)N/C(=C\c2csc3ccccc23)C1=O [DN204671, (Z)-5-(benzo[b]thiophen-3-ylmethylene)-3-methylimidazolidine-2,4-dione]
17 |  |  | 87.61 % of control | 65.66 % of control | CCN1C(=O)/C(=C/c2csc3ccccc23)NC1=S [DN204810, (Z)-5-(benzo[b]thiophen-3-ylmethylene)-3-ethyl-2-thioxoimidazolidin-4-one]
18 | 39.88 % of control | 36.97 % of control |  | 70.7 % of control | CCN1C(=O)/C(=C/c2cccs2)NC1=S [DN204815, (Z)-3-ethyl-5-(thiophen-2-ylmethylene)-2-thioxoimidazolidin-4-one]
19 |  |  | 83.56 % of control | 62.51 % of control | CCN1C(=O)/C(=C/c2c[nH]c3cnccc23)SC1=S [DN205779, (Z)-5-((1H-pyrrolo[2,3-c]pyridin-3-yl)methylene)-3-ethyl-2-thioxothiazolidin-4-one]
20 |  |  | 97.55 % of control | 75.35 % of control | CCN1C(=O)/C(=C/c2csc3ccccc23)SC1=S [DN205782, (Z)-5-(benzo[b]thiophen-3-ylmethylene)-3-ethyl-2-thioxothiazolidin-4-one]
21 |  |  | 81.81 % of control | 69.79 % of control | CCN1C(=O)/C(=C/c2cccc3ccccc23)SC1=S [DN205783]
22 |  |  | 83.97 % of control |  | CCN1C(=O)N/C(=C\c2c[nH]c3ccncc23)C1=O [DN205822, (Z)-5-((1H-pyrrolo[3,2-c]pyridin-3-yl)methylene)-3-ethylimidazolidine-2,4-dione]
